Reference: US20220380378A1 (ESSA Pharma, Inc., priority 2021, published 2022)

Columns and labels:
[1] = Microsomal stability assay, liver microsome half-life (human); format: in vitro ADME; details: pH 7.4; human liver microsomes 0.5 mg/mL, 1 μM compound, 37° C.; read-out: Liver microsome T1/2 Human
Text: (§1) Microsomal Stability Assay: Microsomal stability assay is a widely used in vitro model to characterize the metabolic conversion by phase I enzymes, such as cytochrome P450 (CYP) enzymes. Since metabolism is known to be highly variable in different species, microsomal stability assay is commonly run in multiple species. Metabolic stability of testing compound can be evaluated using human, rat, mouse, or other animal liver or intestine microsomes to predict intrinsic clearance.
(§2) The assay was carried out in 96-well microtiter plates at 37° C. Reaction mixtures (25 μL) contained a final concentration of 1 μM test compound, 0.5 mg/mL liver microsomes protein, and 1 mM NADPH and/or 1 mM UDPGA (with alamethicin) in 100 mM potassium phosphate, pH 7.4 buffer with 3 mM MgCl2. The incubation was done with N=1, but duplicate incubation at each time point can be prepared if necessary. At each of the time points (for example, 0, 15, 30, and 60 minutes), 150 μL of quench solution (100% acetonitrile with 0.1% formic acid) with internal standard was transferred to each well. Besides the zero minute controls, mixtures containing the same components except the NADPH can also be prepared as the negative control. Verapamil was included as a positive control to verify assay performance. Plates were sealed, vortexed, and centrifuged at 4° C. for 15 minutes at 4000 rpm. The supernatant is transferred to fresh plates for LC/MS/MS analysis.
(§3) Summarized conditions: [Compound]=1 μM, [LM]=0.5 mg/mL, [NADPH]=1 mM and/or [UDPGA]=1 mM, Buffer=100 mM Potassium Phosphate, pH 7.4 with 3 mM MgCl2, Time=0, 15, 30, and 60 min, and Temperature=37° C.
(§4) All samples were analyzed on LC/MS/MS using an AB Sciex API 4000 instrument, coupled to a Shimadzu LC-20AD LC Pump system. Analytical samples were separated using a Waters Atlantis T3 dC18 reverse phase HPLC column (20 mm×2.1 mm) at a flow rate of 0.5 mL/min. The mobile phase consisted of 0.1% formic acid in water (solvent A) and 0.1% formic acid in 100% acetonitrile (solvent B).
(§5) The extent of metabolism is calculated as the disappearance of the test compound, compared to the 0-min time incubation. Initial rates are calculated for the compound concentration and used to determine half-life (t½). […]

[2] = Microsomal stability assay, liver microsome half-life (mouse); format: in vitro ADME; details: pH 7.4; mouse liver microsomes 0.5 mg/mL, 1 μM compound, 37° C.; read-out: Liver microsome T1/2 Mouse
Text: as §1, §2, §3, §4, §5

[3] = Microsomal stability assay, liver microsome half-life (rat); format: in vitro ADME; details: pH 7.4; rat liver microsomes 0.5 mg/mL, 1 μM compound, 37° C.; read-out: Liver microsome T1/2 Rat
Text: as §1, §2, §3, §4, §5

[4] = Microsomal stability assay, liver microsome half-life (dog); format: in vitro ADME; details: pH 7.4; dog liver microsomes 0.5 mg/mL, 1 μM compound, 37° C.; read-out: Liver microsome T1/2 Dog
Text: as §1, §2, §3, §4
(§6) The extent of metabolism is calculated as the disappearance of the test compound, compared to the 0-min time incubation. Initial rates are calculated for the compound concentration and used to determine half-life (t½).

[5] = Microsomal stability assay, liver microsome half-life (monkey); format: in vitro ADME; details: pH 7.4; monkey liver microsomes 0.5 mg/mL, 1 μM compound, 37° C.; read-out: Liver microsome T1/2 Monkey
Text: as §1, §2, §3, §4, §6

[6] = target: T1, androgen receptor (AR) (Homo sapiens, UniProt P10275, T878A); test: Androgen-induced PSA (6.1 kb)-luciferase reporter assay in LNCaP cells (R1881 1 nM); format: cell-based; design: endogenous in cells; host or cells: LNCaP; details: 24 h, read-out: PSA-Luc IC50 Range
T1 sequence (P10275 1-920 T878A): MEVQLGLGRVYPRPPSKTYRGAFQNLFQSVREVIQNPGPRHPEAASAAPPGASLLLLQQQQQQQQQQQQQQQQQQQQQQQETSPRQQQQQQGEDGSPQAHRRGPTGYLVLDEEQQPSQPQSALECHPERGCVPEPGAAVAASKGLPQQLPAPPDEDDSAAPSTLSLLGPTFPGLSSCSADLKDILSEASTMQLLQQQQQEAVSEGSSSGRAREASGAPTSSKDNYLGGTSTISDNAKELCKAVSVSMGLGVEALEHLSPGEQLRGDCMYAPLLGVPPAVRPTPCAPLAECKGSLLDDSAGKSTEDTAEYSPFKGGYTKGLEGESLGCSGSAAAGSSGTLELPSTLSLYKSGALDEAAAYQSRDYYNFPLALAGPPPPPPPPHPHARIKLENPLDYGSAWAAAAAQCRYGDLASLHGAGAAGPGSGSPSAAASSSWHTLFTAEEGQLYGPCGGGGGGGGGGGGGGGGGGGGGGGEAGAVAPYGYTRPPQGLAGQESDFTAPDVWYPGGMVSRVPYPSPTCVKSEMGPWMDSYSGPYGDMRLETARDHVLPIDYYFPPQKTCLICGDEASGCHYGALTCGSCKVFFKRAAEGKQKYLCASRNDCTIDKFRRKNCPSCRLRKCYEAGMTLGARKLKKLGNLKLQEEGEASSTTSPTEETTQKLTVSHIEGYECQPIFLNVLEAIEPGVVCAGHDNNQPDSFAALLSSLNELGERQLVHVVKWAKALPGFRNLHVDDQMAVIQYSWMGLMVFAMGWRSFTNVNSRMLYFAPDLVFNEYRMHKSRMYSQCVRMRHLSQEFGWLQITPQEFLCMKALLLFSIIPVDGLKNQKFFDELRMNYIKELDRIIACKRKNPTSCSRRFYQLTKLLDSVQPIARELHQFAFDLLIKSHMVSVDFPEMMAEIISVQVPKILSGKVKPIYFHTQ
Procedure, shortened: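 LNCaP cells transiently transfected with PSA (6.1 kb)-luciferase for 24 h, pretreated 1 h with compound or DMSO, then stimulated with 1 nM R1881 for 24 h. Firefly luciferase in lysates normalized to protein content; IC50 relative to R1881-induced vehicle activity.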

Row | Compound | half-life at 1 μM [1] | half-life at 1 μM [2] | half-life at 1 μM [3] | half-life at 1 μM [4] | half-life at 1 μM [5] | IC50 [6]
1 | CS(=O)(=O)N[C@H]1C[C@H](COc2ccc3c(ccn3-c3cc(Cl)c(OCCCl)c(C#N)c3)c2)C1 [Compound A135] | > 2 h | 1.97 h | > 2 h | > 2 h | 0.733 h | 500 to 2000 nM
2 | CC(c1cc(Cl)c(OCCCl)c(C#N)c1)n1cc(-c2ccc3nc(NS(C)(=O)=O)ncc3c2)cn1 (stereo not drawn) [Compound A141] | > 2 h | > 2 h | > 2 h | > 2 h | 1.1 h | > 2000 nM
3 | CS(=O)(=O)Nc1ncc(Cn2ncc3c(-c4cc(Cl)c(OCCCl)c(C#N)c4)cccc32)cn1 [Compound A144] | > 2 h | > 2 h | > 2 h | > 2 h | > 2 h | 500 to 2000 nM
4 | CC(C)(c1ccc(OCc2ccnc(NS(C)(=O)=O)n2)cc1)c1ccc(OCC(O)CCl)cc1 (stereo not drawn) [Compound A150, N-(4-((4-(2-(4-(3-chloro-2-hydroxypropoxy)phenyl)propan-2-yl)phenoxy)methyl)pyrimidin-2-yl)methanesulfonamide] | > 2 h | > 2 h | > 2 h | > 2 h | > 2 h | < 500 nM
5 | CS(=O)(=O)NC1CCN(Cc2ccc3c(ccn3-c3cc(Cl)c(OCCCl)c(C#N)c3)c2)CC1 [Compound A169] | > 2 h | > 2 h | > 2 h | > 2 h | > 2 h | > 2000 nM
6 | CC(C)(c1ccc(-c2ccc3nc(NS(C)(=O)=O)nc(N)c3c2)cc1)c1cc(Cl)c(OCCCl)c(C#N)c1 [Compound A173] | > 2 h | > 2 h | > 2 h | > 2 h | > 2 h | < 500 nM
7 | CC(Oc1ccc2c(ccn2-c2cc(Cl)c(OCCCl)c(C#N)c2)c1)C12CC(NS(C)(=O)=O)(C1)C2 (stereo not drawn) [Compound A180] | > 2 h | > 2 h | > 2 h | 0.967 h | 0.75 h | 500 to 2000 nM
8 | CS(=O)(=O)NC1CCN(CCc2ccc3c(ccn3-c3cc(Cl)c(OCCCl)c(C#N)c3)c2)CC1 [Compound A187] | > 2 h | > 2 h | > 2 h | > 2 h | 1.47 h | 500 to 2000 nM
9 | CC(C)(c1ccc(-c2ccc3nc(NS(C)(=O)=O)ccc3n2)cc1)c1cc(Cl)c(OCCCl)c(C#N)c1 [Compound A191] | > 2 h | > 2 h | > 2 h | > 2 h | > 2 h | < 500 nM
10 | CC(C)(c1ccc(-c2cnc3nc(NS(C)(=O)=O)ccc3c2)cc1)c1cc(Cl)c(OCCCl)c(C#N)c1 [Compound A194] | 1.97 h | > 2 h | > 2 h | 1.48 h | > 2 h | < 500 nM
11 | CC(C)(c1ccc(-c2cnc3c(c2)CCC3NS(C)(=O)=O)cc1)c1cc(Cl)c(OCCCl)c(C#N)c1 (stereo not drawn) [Compound A217] | > 2 h | > 2 h | 0.433 h | 0.833 h | 0.933 h | 500 to 2000 nM
12 | CS(=O)(=O)NC1CCN(Cc2ccc3c(ccn3-c3cc(Cl)c(OCCCl)c(C#N)c3)c2)CC1(F)F (stereo not drawn) [Compound A239] | 1.88 h | > 2 h | > 2 h | > 2 h | 0.65 h | 500 to 2000 nM
13 | CS(=O)(=O)NC12CC(COc3ccc4c(c3)CCC4c3cc(Cl)c(OCCCl)c(C#N)c3)(C1)C2 (stereo not drawn) [Compound A246] | 1.48 h | > 2 h | 1.08 h | 1.32 h | 1.3 h | 500 to 2000 nM
14 | CC(C)(c1ccc(-c2ccc3nc(NS(C)(=O)=O)oc3c2)cc1)c1cc(Cl)c(OCCCl)c(C#N)c1 [Compound A254] | > 2 h | > 2 h | > 2 h | > 2 h | > 2 h | 500 to 2000 nM
15 | CC(C)(c1ccc(OCc2ccnc(NS(C)(=O)=O)n2)cc1)c1cc(F)c(N2CCOCC2)c(C#N)c1 [Compound A262] | > 2 h | > 2 h | 1.63 h | > 2 h | 0.85 h | 500 to 2000 nM
16 | C[C@@H](Oc1ccc(C(C)(C)c2cc(Cl)c(OCCCl)c(C#N)c2)cc1)C12CC(NS(C)(=O)=O)(C1)C2 [Compound A264] | > 2 h | > 2 h | > 2 h | > 2 h | 0.8 h | 500 to 2000 nM
17 | COc1c(Cl)cc(C(C)(C)c2ccc(-c3ccc4nc(NS(C)(=O)=O)cnc4c3)cc2)cc1C#N [Compound A269] | > 2 h | > 2 h | > 2 h | 1.32 h | > 2 h | > 2000 nM
18 | CS(=O)(=O)Nc1cnc2cc(-c3ccc4c(c3)CCC4c3cc(Cl)c(OCCCl)c(C#N)c3)ccc2n1 (stereo not drawn) [Compound A270] | > 2 h | > 2 h | > 2 h | > 2 h | > 2 h | 500 to 2000 nM
19 | CC(C)(c1ccc(-c2ccc3nc(NS(C)(=O)=O)sc3c2)cc1)c1cc(Cl)c(OCCCl)c(C#N)c1 [Compound A274] | > 2 h | > 2 h | > 2 h | > 2 h | > 2 h | < 500 nM
